Broadly, the Ki is the dissociation constant of the complex between target and ligand, obtained from inhibition or displacement.

Ki data for 46 molecules are collected here from patent US9688668B2, “Long chain base sphingosine kinase inhibitors” (UNIVERSITY OF VIRGINIA PATENT FOUNDATION, priority 2012, dated 2017).

The target in one assay is recombinant SphK1 (Homo sapiens (Human), UniProt Q9NYA1). As to the kind of experiment: SphK1 scintillation proximity kinase assay.
Chain of recombinant SphK1 (Q9NYA1 whole entry): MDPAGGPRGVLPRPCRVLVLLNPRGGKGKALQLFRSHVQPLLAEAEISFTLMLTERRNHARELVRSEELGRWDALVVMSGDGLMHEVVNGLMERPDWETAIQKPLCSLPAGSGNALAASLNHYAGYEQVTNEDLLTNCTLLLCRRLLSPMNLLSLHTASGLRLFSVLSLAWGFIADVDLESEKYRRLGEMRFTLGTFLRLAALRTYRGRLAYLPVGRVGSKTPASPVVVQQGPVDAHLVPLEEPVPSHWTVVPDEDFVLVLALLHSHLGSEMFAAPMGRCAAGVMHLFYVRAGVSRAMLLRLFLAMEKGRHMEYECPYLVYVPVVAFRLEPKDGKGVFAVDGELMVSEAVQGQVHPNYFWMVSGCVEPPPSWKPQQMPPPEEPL
Conditions: not given
(Scintillation proximity formats need no separation of bound from free tracer.)
In the case of `CCCCCCCCCCCCCCCCC(=N)N` [Compound 3, heptadecanimidamide], the Ki is 1 to 10 µM. For the molecule `CCCCCCCCCCCCc1ccc(-c2noc(C3(C(=N)N)CC3)n2)cc1` [Compound 11, 1-(3-(4-dodecylphenyl)-1,2,4-oxadiazol-5-yl) cyclopropanecarboximidamide], the Ki was 1 to 10 µM. With `CCCCCCCCCCCc1cc(-c2noc(C3(C(=N)N)CC3)n2)ccc1OC` [Compound 14, 1-(3-(4-methoxy-3-undecylphenyl)-1,2,4-oxadiazol-5-yl)cyclopropanecarboximidamide], the Ki was less than 1 µM.

As for `CCCCCCCCc1ccc([C@H]2CC[C@H](NC(=N)N)CC2)cc1` [Compound 34, 1-((1R,4R)-4-(4-octylphenyl)-cyclohexyl)guanidine], the inhibition constant Ki was in the range of 1 to 10 µM.

As to `CCCCCCCCc1ccc(-c2noc(CNC(=N)N)n2)cc1` [Compound 46, 1-((3-(4-octylphenyl)-1,2,4-oxadiazol-5-yl)methyl)guanidine], the Ki lay in the range of 1 to 10 µM.

Turning to `CCCCCCCCc1ccc(-c2noc([C@H](C)NC(=N)N)n2)cc1` [Compound 47, (S)-1-(1-(3-(4-octylphenyl)-1,2,4-oxadiazol-5-yl)ethyl)guanidine], the inhibitory constant (Ki) lay within 1 to 10 µM. In the case of `CCCCCCCCc1ccc(-c2noc([C@@H](NC(=N)N)C(C)C)n2)cc1` [Compound 48, (S)-1-(2-methyl-1-(3-(4-octylphenyl)-1,2,4-oxadiazol-5-yl)propyl)guanidine], the Ki fell in the range of 1 to 10 µM. Regarding `CCCCCCCCCCc1ccc(-c2noc([C@@H]3CCCN3C(=N)N)n2)cc1` [Compound 54, (S)-2-(3-(4-decylphenyl)-1,2,4-oxadiazol-5-yl)pyrrolidine-1-carboximidamide], the Ki lay within 1 to 10 µM. With `CCCCCCCCCCCCc1ccc(-c2noc([C@@H]3CCCN3C(=N)N)n2)cc1` [Compound 55, (S)-2-(3-(4-dodecylphenyl)-1,2,4-oxadiazol-5-yl)pyrrolidine-1-carboximidamide], the Ki is more than 10 µM. Turning to `CCCCCCc1ccc(-c2noc([C@@H]3CCCN3C(=N)N)n2)cc1` [Compound 56, (S)-2-(3-(4-hexylphenyl)-1,2,4-oxadiazol-5-yl)pyrrolidine-1-carboximidamide], the inhibition constant (Ki) is more than 10 µM. Still for that read-out and setting: to `N=C(N)N1CC[C@H]1c1nc(-c2ccc(-c3ccccc3)cc2)no1` [Compound 60, (S)-2-(3-([1,1′-biphenyl]-4-yl)-1,2,4-oxadiazol-5-yl)azetidine-1-carboximidamide] belongs more than 10 µM; to `CCCCCCCCCCc1ccc(-c2noc([C@@H]3CCN3C(=N)N)n2)cc1` [Compound 63, (S)-2-(3-(4-decylphenyl)-1,2,4-oxadiazol-5-yl)azetidine-1-carboximidamide], 1 to 10 µM; to `CCCCCCCCc1ccc(-c2noc(C3CN(C(=N)N)C3)n2)cc1` [Compound 66, 3-(3-(4-octylphenyl)-1,2,4-oxadiazol-5-yl)azetidine-1-carboximidamide], 1 to 10 µM.

The assay is the same for the next values; noted with them: read-out: SphK1 (estimated Ki range); Estimated Ki values at recombinant SphK1.
As to `CCCCCCCCCCCCc1ccc(C(=O)NNC(=N)N)cc1` [Compound 1, 2-(4-dodecylbenzoyl)hydrazine carboximidamide], the Ki was more than 10 µM. In the case of `CCCCCCCCCCCCC/C=C/[C@@H](O)[C@@H](N)C(=N)N` [Compound 2, (2S,3R,E)-2-amino-3-hydroxyoctadec-4-enimidamide], the Ki is more than 10 µM. As to `CCCCCCCCCCCCC/C=C/CC(=N)N` [Compound 4, (E)-heptadec-3-enimidamide], the inhibition constant Ki was more than 10 µM. For the molecule `CCCCCCCCCCc1ccc(CCCC(=N)N)cc1` [Compound 5, 4-(4-decylphenyl)butanimidamide], the inhibition constant Ki is more than 10 µM. On the same count and under the same terms, to `CCCCCCCCCCc1ccc(/C=C/CC(=N)N)cc1` [Compound 6, (E)-4-(4-decylphenyl)but-3-enimidamide] belongs more than 10 µM; to `CCCCCCCCc1ccc(CC[C@@H](N)C(=N)N)cc1` [Compound 8, (R)-2-amino-4-(4-octylphenyl)butanimidamide], more than 10 µM; to `CCCCCCCCCCCCc1ccc(-c2noc(CC(=N)N)n2)cc1` [Compound 12, 2-(3-(4-dodecylphenyl)-1,2,4-oxadiazol-5-yl)acetimidamide], more than 10 µM.

Regarding `CCCCCCCCCCCCc1ccc(-c2coc(C(C)C(=N)N)n2)cc1` (stereo not shown) [Compound 18, 2-(4-(4-dodecylphenyl)oxazol-2-yl)propanimidamide], the Ki is more than 10 µM.

`CCCCCCCCCCCCc1ccc(-c2coc(CC(=N)N)n2)cc1` [Compound 19, 2-(4-(4-dodecylphenyl)oxazol-2-yl)acetimidamide]: the inhibitory constant (Ki) is more than 10 µM. Still for that read-out and setting: to `CCCCCCCCCCCc1cc(-c2nnc(C3(C(=N)N)CC3)o2)c(OC)cc1OC` [Compound 22, 1-(5-(2,4-dimethoxy-5-undecylphenyl)-1,3,4-oxadiazol-2-yl)cyclopropanecarboximidamide] belongs less than 1 µM; to `CCCCCCCCCCCc1ccc(OC)c(-c2nnc(C3(C(=N)N)CC3)o2)c1` [Compound 24, 1-(5-(2-methoxy-5-undecylphenyl)-1,3,4-oxadiazol-2-yl)cyclopropanecarboximidamide], less than 1 µM; to `CCCCCCCCCCCc1cc(-c2nnc(C3(C(=N)N)CC3)o2)ccc1OC` [Compound 27, 1-(5-(4-methoxy-3-undecylphenyl)-1,3,4-oxadiazol-2-yl)cyclopropanecarboximidamide], less than 1 µM. As for `CCCCCCCCc1ccc(C(=O)NCCOC(=N)N)cc1` [Compound 33, 2-(4-octylbenzamido)ethyl carbamimidate], the Ki is more than 10 µM.

For the molecule `CCCCCCCCc1ccc(CNC(=O)C2(NC(=N)N)CC2)cc1` [Compound 35, 1-guanidino-N-(4-octylbenzyl) cyclopropanecarboxamide], the inhibition constant (Ki) was more than 10 µM. For the molecule `CCCCCCCCCCCCc1ccc(NC(=O)C2(NC(=N)N)CC2)cc1` [Compound 36, N-(4-dodecylphenyl)-1-guanidinocyclopropane-carboxamide], the Ki is more than 10 µM. With `N=C(N)N1CCC[C@H]1c1nc(-c2ccc(I)cc2)no1` [Compound 37, (S)-2-(3-(4-iodophenyl)-1,2,4-oxadiazol-5-yl)pyrrolidine-1-carboximidamide], the Ki was more than 10 µM. With `N=C(N)N1CCC[C@H]1c1nc(-c2ccc(C#CC3CCCC3)cc2)no1` [Compound 38, (S)-2-(3-(4-(cyclopentylethynyl)phenyl)-1,2,4-oxadiazol-5-yl)pyrrolidine-1-carboximidamide], the inhibition constant (Ki) was more than 10 µM. For `CCCCCCCCc1noc([C@@H]2CCCN2C(=N)N)n1` [Compound 39, (S)-2-(3-octyl-1,2,4-oxadiazol-5-yl)pyrrolidine-1-carboximidamide], the Ki is more than 10 µM. Regarding `CCCCCCCCCCCCc1noc([C@@H]2CCCN2C(=N)N)n1` [Compound 40, (S)-2-(3-dodecyl-1,2,4-oxadiazol-5-yl)pyrrolidine-1-carboximidamide], the Ki is more than 10 µM. Turning to `CCCCCCCCCCCCCCCCc1noc([C@@H]2CCCN2C(=N)N)n1` [Compound 41, (S)-2-(3-hexadecyl-1,2,4-oxadiazol-5-yl)pyrrolidine-1-carboximidamide], the inhibitory constant (Ki) was more than 10 µM. In the case of `CCCCCCCCc1ccc(-c2noc(C3(NC(=N)N)CC3)n2)cc1` [Compound 42, 1-(1-(3-(4-octylphenyl)-1,2,4-oxadiazol-5-yl)cyclopropyl)guanidine], the inhibitory constant (Ki) was more than 10 µM.

Turning to `CCCCCCCCCCCc1ccc(-c2noc(C3(NC(=N)N)CC3)n2)cc1` [Compound 43, 1-(1-(3-(4-undecylphenyl)-1,2,4-oxadiazol-5-yl)cyclopropyl)guanidine], the inhibition constant (Ki) was more than 10 µM. Turning to `CCCCCCCCCCCCc1ccc(-c2noc(C3(NC(=N)N)CC3)n2)cc1` [Compound 44, 1-(1-(3-(4-dodecylphenyl)-1,2,4-oxadiazol-5-yl)cyclopropyl)guanidine], the Ki is more than 10 µM. Regarding `CCCCCCCCc1ccc(-c2noc(CN(C)C(=N)N)n2)cc1` [Compound 45, 1-methyl-1-((3-(4-octylphenyl)-1,2,4-oxadiazol-5-yl)methyl)guanidine], the inhibition constant Ki was more than 10 µM.

For `CCCCCCCCCCCCCCc1ccc(-c2noc([C@@H]3CCCN3C(=N)N)n2)cc1` [Compound 57, (S)-2-(3-(4-tetradecylphenyl)-1,2,4-oxadiazol-5-yl)pyrrolidine-1-carboximidamide], the inhibition constant (Ki) is more than 10 µM. On to `CCCCCCCCc1cccc(-c2noc([C@@H]3CCCN3C(=N)N)n2)c1` [Compound 58, (S)-2-(3-(3-octylphenyl)-1,2,4-oxadiazol-5-yl)pyrrolidine-1-carboximidamide], for which the Ki was more than 10 µM. The same measure, in the same setting: to `CCCCCCCCc1ccc(-c2noc([C@@H]3CCN(C(=N)N)C3)n2)cc1` [Compound 59, (R)-3-(3-(4-octylphenyl)-1,2,4-oxadiazol-5-yl)pyrrolidine-1-carboximidamide] belongs more than 10 µM.

For the molecule `CCCCCCc1ccc(-c2noc([C@@H]3CCN3C(=N)N)n2)cc1` [Compound 61, (S)-2-(3-(4-hexylphenyl)-1,2,4-oxadiazol-5-yl)azetidine-1-carboximidamide], the inhibition constant Ki was more than 10 µM. On the same count and under the same terms, for `CCCCCCCCc1ccc(-c2noc([C@@H]3CCN3C(=N)NO)n2)cc1` [Compound 65, (S)-N-hydroxy-2-(3-(4-octylphenyl)-1,2,4-oxadiazol-5-yl)azetidine-1-carboximidamide] the value was more than 10 µM; for `CCCCCCCCCCc1ccc(-c2noc(C3CN(C(=N)N)C3)n2)cc1` [Compound 67, 3-(3-(4-decylphenyl)-1,2,4-oxadiazol-5-yl)azetidine-1-carboximidamide], more than 10 µM; for `CCCCCCCCc1cccc(-c2noc(C[C@@H]3CCCN3C(=N)N)n2)c1` [Compound 74, (S)-2-((3-(3-octylphenyl)-1,2,4-oxadiazol-5-yl)methyl)pyrrolidine-1-carboximidamide], more than 10 µM. The same measure, in the same setting: to `CCCCCCCCCCCCc1noc(C[C@@H]2CCCN2C(=N)N)n1` [Compound 76, (S)-2-((3-dodecyl-1,2,4-oxadiazol-5-yl)methyl)pyrrolidine-1-carboximidamide] belongs more than 10 µM; to `N=C(N)N1CCC[C@H]1Cc1nc(-c2ccc(CS(=O)(=O)c3ccccc3)cc2)no1` [Compound 77, (S)-2-((3-(4-((phenylsulfonyl)methyl)phenyl)-1,2,4-oxadiazol-5-yl)methyl)pyrrolidine-1-carboximidamide], more than 10 µM.
